Source: paper PMC12446779, “Structural basis of transglucosylation in dextran dextrinase, a homolog of anomer-inverting GH15 glucoside hydrolases” (The Journal of Biological Chemistry, 2025)

Assays:
Δ382C (DDase-Δ382C) [1] = biological target: T1, Δ382C (DDase-Δ382C) (Gluconobacter oxydans, UniProt A0A0M5MSC0, E858A); test: glycosynthase reaction, isomaltotetraose formation by HPAEC-PAD; type: biochemical; conditions: 12.5 mM donor, 50 mM isomaltotriose acceptor, 130 mM sodium acetate pH 4.2, 35 °C
T1 construct: gene HKD20_12845; C-terminal truncation Met1-Ser902 (domains N1, N2, HLH, A); N-terminal His6 tag (MNHKVHHHHHHIEGRHMEL) kept; E. coli BL21-CodonPlus(DE3)-RIL; 921 residues with tag; dimer 195,604 Da
T1 sequence (A0A0M5MSC0 entry or part of it E858A): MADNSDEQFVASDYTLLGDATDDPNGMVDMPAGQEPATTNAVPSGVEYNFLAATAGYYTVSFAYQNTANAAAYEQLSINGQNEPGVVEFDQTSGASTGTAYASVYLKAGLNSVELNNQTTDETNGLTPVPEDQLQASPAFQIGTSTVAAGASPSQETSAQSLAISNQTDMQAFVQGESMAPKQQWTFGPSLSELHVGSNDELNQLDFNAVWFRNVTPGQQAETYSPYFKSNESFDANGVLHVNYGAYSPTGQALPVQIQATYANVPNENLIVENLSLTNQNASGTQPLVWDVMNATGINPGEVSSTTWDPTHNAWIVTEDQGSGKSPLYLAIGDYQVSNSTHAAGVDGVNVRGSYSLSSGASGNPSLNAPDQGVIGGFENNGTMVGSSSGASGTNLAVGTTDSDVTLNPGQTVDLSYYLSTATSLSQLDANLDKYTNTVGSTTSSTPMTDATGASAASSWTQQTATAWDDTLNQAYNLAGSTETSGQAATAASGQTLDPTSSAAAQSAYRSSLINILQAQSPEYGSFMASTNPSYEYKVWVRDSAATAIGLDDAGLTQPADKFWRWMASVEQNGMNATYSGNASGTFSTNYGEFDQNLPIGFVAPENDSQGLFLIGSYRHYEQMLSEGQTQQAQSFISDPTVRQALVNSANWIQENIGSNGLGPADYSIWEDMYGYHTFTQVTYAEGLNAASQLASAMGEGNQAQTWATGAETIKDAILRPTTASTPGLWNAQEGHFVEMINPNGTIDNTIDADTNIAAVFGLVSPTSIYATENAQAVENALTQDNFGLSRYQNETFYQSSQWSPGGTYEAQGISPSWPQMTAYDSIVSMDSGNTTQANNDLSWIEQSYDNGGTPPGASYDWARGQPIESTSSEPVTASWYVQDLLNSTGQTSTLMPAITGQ

Δ382C (DDase-Δ382C) [2] = biological target: T2, Δ382C (DDase-Δ382C) (Gluconobacter oxydans, UniProt A0A0M5MSC0, E858S); test: as above; type: biochemical; conditions: 12.5 mM donor, 50 mM isomaltotriose acceptor, 130 mM sodium acetate pH 4.2, 35 °C
T2 construct: gene HKD20_12845; C-terminal truncation Met1-Ser902 (domains N1, N2, HLH, A); N-terminal His6 tag (MNHKVHHHHHHIEGRHMEL) kept; E. coli BL21-CodonPlus(DE3)-RIL; 921 residues with tag; dimer 195,604 Da
T2 sequence (A0A0M5MSC0 entry or part of it E858S): as the sequence (A0A0M5MSC0 entry or part of it E858A) above, with A858S counted along it

SMILES: OC[C@H]1O[C@@H](F)[C@H](O)[C@@H](O)[C@@H]1O [β-GF, β-D-glucosyl fluoride]
- glycosynthase reaction, isomaltotetraose formation by HPAEC-PAD (Δ382C (DDase-Δ382C) [1]): isomaltotetraose (IG4) was produced from β-D-glucosyl fluoride (β-GF) and IG3 by E858A and E858S
- glycosynthase reaction, isomaltotetraose formation by HPAEC-PAD (Δ382C (DDase-Δ382C) [2]): isomaltotetraose (IG4) was produced from β-D-glucosyl fluoride (β-GF) and IG3 by E858A and E858S
